According to ChEMBL document CHEMBL1146637, “Structure-activity relationship in the oxazolidinone-quinolone hybrid series: influence of the central spacer on the antibacterial activity and the mode of action” (Bioorg Med Chem Lett, 2003):
≈ marks a conversion by molar mass, not a printed value.

Tests used:
Escherichia coli [1] = test: In vitro antibacterial activity against Escherichia coli ATCC 25922 (Ecol) was determined; type: functional
Enterococcus faecium = test: In vitro antibacterial activity against vancomycin and ciprofloxacin resistant Enterococcus faecium (Efm CIP) was determined; type: functional
Enterococcus faecalis = test: In vitro antibacterial activity against Enterococcus faecalis ATCC 29212 (Efs) was determined; type: functional
Staphylococcus aureus [2] = test: In vitro antibacterial activity against ciprofloxacin and methicillin resistant Staphylococcus aureus (Sau2CIP) was determined; type: functional
Staphylococcus aureus [3] = test: In vitro antibacterial activity against oxazolidinone Linezolid resistant Staphylococcus aureus (Sau3LZD) was determined; type: functional
Escherichia coli [4] = test: In vitro antibacterial activity against Escherichia coli AS19 (Eco2), permeable mutant was determined; type: functional
Haemophilus influenzae = test: In vitro antibacterial activity against Haemophilus influenzae 11 (Hin) was determined; type: functional
Staphylococcus aureus [5] = test: In vitro antibacterial activity against […] Staphylococcus aureus ATCC 29213 (Saul); type: functional
Escherichia coli [6] = test: In vitro inhibitory activity against protein synthesis was determined by transcription/translation assay with Escherichia coli S30 Extract System.; type: functional
DNA gyrase = DNA gyrase (Escherichia coli, UniProt P0AES4+P0AES6); test: Inhibitory activity against DNA gyrase enzyme was determined by supercoiling assay with Escherichia coli DNA gyrase; type: protein-complex assay
[7] = Inhibitory activity against Escherichia coli Topoisomerase IV in relaxation assay; type: functional

| Structure (SMILES) | MIC (Escherichia coli [1]) | MIC (Enterococcus faecium) | MIC (Enterococcus faecalis) | MIC (Staphylococcus aureus [2]) | MIC (Staphylococcus aureus [3]) | MIC (Escherichia coli [4]) | MIC (Haemophilus influenzae) | MIC (Staphylococcus aureus [5]) | IC50 (Escherichia coli [6]) | IC50 (DNA gyrase) | IC50 [7] |
| --- | --- | --- | --- | --- | --- | --- | --- | --- | --- | --- | --- |
| CC(=O)NC[C@H]1CN(c2ccc(OCCC3CCN(c4nc5c(cc4F)c(=O)c(C(=O)O)cn5C4CC4)C3)c(F)c2)C(=O)O1 (stereo not given in full) | 2 µg/mL (≈ 3.27 µM) | 0.125 µg/mL (≈ 0.204 µM) | 0.06 µg/mL (≈ 0.0981 µM) | 0.125 µg/mL (≈ 0.204 µM) | 0.125 µg/mL (≈ 0.204 µM) | ≤ 0.06 µg/mL | 0.5 µg/mL (≈ 0.818 µM) | 0.125 µg/mL (≈ 0.204 µM) |  |  |  |
| CC(=O)NC[C@H]1CN(c2ccc(OC[C@@H]3CCN(c4nc5c(cc4F)c(=O)c(C(=O)O)cn5C4CC4)C3)c(F)c2)C(=O)O1 | 1 µg/mL (≈ 1.67 µM) | 0.5 µg/mL (≈ 0.837 µM) | 0.125 µg/mL (≈ 0.209 µM) | 0.25 µg/mL (≈ 0.418 µM) | ≤ 0.06 µg/mL | ≤ 0.06 µg/mL | 0.125 µg/mL (≈ 0.209 µM) | ≤ 0.06 µg/mL |  |  |  |
| CC(=O)NC[C@H]1CN(c2ccc(OC3CCN(c4nc5c(cc4F)c(=O)c(C(=O)O)cn5C4CC4)CC3)c(F)c2)C(=O)O1 | 32 µg/mL (≈ 53.5 µM) | 0.25 µg/mL (≈ 0.418 µM) | 0.125 µg/mL (≈ 0.209 µM) | 0.25 µg/mL (≈ 0.418 µM) | 1 µg/mL (≈ 1.67 µM) | 0.25 µg/mL (≈ 0.418 µM) | 1 µg/mL (≈ 1.67 µM) | 0.25 µg/mL (≈ 0.418 µM) | 5.2 µM | 50 µM | 5 µM |
| CC(=O)NC[C@H]1CN(c2ccc(OC3CCCN(c4nc5c(cc4F)c(=O)c(C(=O)O)cn5C4CC4)CC3)c(F)c2)C(=O)O1 (stereo not given in full) | 8 µg/mL (≈ 13.1 µM) | 0.5 µg/mL (≈ 0.818 µM) | 0.25 µg/mL (≈ 0.409 µM) | 0.25 µg/mL (≈ 0.409 µM) | 0.5 µg/mL (≈ 0.818 µM) | ≤ 0.06 µg/mL | 1 µg/mL (≈ 1.64 µM) | 0.5 µg/mL (≈ 0.818 µM) |  |  |  |
| CC(=O)NC[C@H]1CN(c2ccc(OCC3CCN(c4nc5c(cc4F)c(=O)c(C(=O)O)cn5C4CC4)C3)c(F)c2)C(=O)O1 (stereo not given in full) | 1 µg/mL (≈ 1.67 µM) | 0.25 µg/mL (≈ 0.418 µM) | 0.125 µg/mL (≈ 0.209 µM) | 0.125 µg/mL (≈ 0.209 µM) | ≤ 0.06 µg/mL | ≤ 0.06 µg/mL | 0.125 µg/mL (≈ 0.209 µM) | 0.125 µg/mL (≈ 0.209 µM) | 1.5 µM | 2 µM |  |
| CC(=O)NC[C@H]1CN(c2ccc(OC3CCCN(c4nc5c(cc4F)c(=O)c(C(=O)O)cn5C4CC4)C3)c(F)c2)C(=O)O1 (stereo not given in full) | > 32 µg/mL | > 32 µg/mL | 16 µg/mL (≈ 26.8 µM) | 16 µg/mL (≈ 26.8 µM) | 16 µg/mL (≈ 26.8 µM) | 8 µg/mL (≈ 13.4 µM) | 2 µg/mL (≈ 3.35 µM) | 32 µg/mL (≈ 53.5 µM) |  |  |  |
| CC(=O)NC[C@H]1CN(c2ccc(O[C@@H]3CCN(c4nc5c(cc4F)c(=O)c(C(=O)O)cn5C4CC4)C3)c(F)c2)C(=O)O1 | 8 µg/mL (≈ 13.7 µM) | 2 µg/mL (≈ 3.43 µM) | 0.5 µg/mL (≈ 0.857 µM) | 0.5 µg/mL (≈ 0.857 µM) | 0.5 µg/mL (≈ 0.857 µM) | ≤ 0.06 µg/mL | 0.5 µg/mL (≈ 0.857 µM) | 1 µg/mL (≈ 1.71 µM) |  |  |  |
| CC(=O)NC[C@H]1CN(c2ccc(N[C@@H]3CCN(c4nc5c(cc4F)c(=O)c(C(=O)O)cn5C4CC4)C3)c(F)c2)C(=O)O1 | 0.5 µg/mL (≈ 0.858 µM) | 8 µg/mL (≈ 13.7 µM) | ≤ 0.06 µg/mL | 1 µg/mL (≈ 1.72 µM) | ≤ 0.06 µg/mL | ≤ 0.06 µg/mL | ≤ 0.06 µg/mL | ≤ 0.06 µg/mL |  |  |  |
| CC(=O)NC[C@H]1CN(c2ccc(OCC3CCN(c4nc5c(cc4F)c(=O)c(C(=O)O)cn5C4CC4)CC3)c(F)c2)C(=O)O1 | > 32 µg/mL | 0.125 µg/mL (≈ 0.204 µM) | ≤ 0.06 µg/mL | 0.125 µg/mL (≈ 0.204 µM) | 1 µg/mL (≈ 1.64 µM) | 0.125 µg/mL (≈ 0.204 µM) | 0.5 µg/mL (≈ 0.818 µM) | 0.125 µg/mL (≈ 0.204 µM) |  |  |  |
| CC(=O)NC[C@H]1CN(c2ccc(OC[C@H]3CCN(c4nc5c(cc4F)c(=O)c(C(=O)O)cn5C4CC4)C3)c(F)c2)C(=O)O1 | 1 µg/mL (≈ 1.67 µM) | 0.125 µg/mL (≈ 0.209 µM) | 0.06 µg/mL (≈ 0.1 µM) | 0.125 µg/mL (≈ 0.209 µM) | 0.125 µg/mL (≈ 0.209 µM) | ≤ 0.06 µg/mL | 0.25 µg/mL (≈ 0.418 µM) | 0.125 µg/mL (≈ 0.209 µM) |  |  |  |
| CC(=O)NC[C@H]1CN(c2ccc(OC3CN(c4nc5c(cc4F)c(=O)c(C(=O)O)cn5C4CC4)C3)c(F)c2)C(=O)O1 | 1 µg/mL (≈ 1.76 µM) | 2 µg/mL (≈ 3.51 µM) | 0.5 µg/mL (≈ 0.878 µM) | 0.5 µg/mL (≈ 0.878 µM) | ≤ 0.06 µg/mL | ≤ 0.06 µg/mL | 0.125 µg/mL (≈ 0.219 µM) | 0.25 µg/mL (≈ 0.439 µM) |  |  |  |
| CC(=O)NC[C@H]1CN(c2ccc(OCCC3CCN(c4nc5c(cc4F)c(=O)c(C(=O)O)cn5C4CC4)CC3)c(F)c2)C(=O)O1 | > 32 µg/mL | 0.125 µg/mL (≈ 0.2 µM) | 0.125 µg/mL (≈ 0.2 µM) | 0.125 µg/mL (≈ 0.2 µM) | 1 µg/mL (≈ 1.6 µM) | ≤ 0.06 µg/mL | 2 µg/mL (≈ 3.2 µM) | 0.125 µg/mL (≈ 0.2 µM) |  |  |  |
| CC(=O)NC[C@H]1CN(c2ccc(N3CCN(c4nc5c(cc4F)c(=O)c(C(=O)O)cn5C4CC4)CC3)c(F)c2)C(=O)O1 | 32 µg/mL (≈ 54.9 µM) | 0.25 µg/mL (≈ 0.429 µM) | 0.125 µg/mL (≈ 0.215 µM) | 0.25 µg/mL (≈ 0.429 µM) | 8 µg/mL (≈ 13.7 µM) | 0.06 µg/mL (≈ 0.103 µM) | 1 µg/mL (≈ 1.72 µM) | 0.25 µg/mL (≈ 0.429 µM) | 2.8 µM | 50 µM | 10 µM |
| CC(=O)NC[C@H]1CN(c2ccc(O[C@H]3CCN(c4nc5c(cc4F)c(=O)c(C(=O)O)cn5C4CC4)C3)c(F)c2)C(=O)O1 | 1 µg/mL (≈ 1.71 µM) | 1 µg/mL (≈ 1.71 µM) | 0.125 µg/mL (≈ 0.214 µM) | 0.25 µg/mL (≈ 0.428 µM) | ≤ 0.06 µg/mL | ≤ 0.06 µg/mL | ≤ 0.06 µg/mL | ≤ 0.06 µg/mL | 6.7 µM | 10 µM | 3 µM |
| O=C(O)c1cn(C2CC2)c2cc(N3CCNCC3)c(F)cc2c1=O [CIPROFLOXACIN] | ≤ 0.03 µg/mL | > 32 µg/mL | 1 µg/mL (≈ 3.02 µM) | > 32 µg/mL | 0.5 µg/mL (≈ 1.51 µM) | ≤ 0.03 µg/mL | ≤ 0.03 µg/mL | 0.5 µg/mL (≈ 1.51 µM) | > 20 µM |  | 2.5 µM |
| CC(=O)NC[C@H]1CN(c2ccc(N3CCOCC3)c(F)c2)C(=O)O1 [LINEZOLID] | > 64 µg/mL | 2 µg/mL (≈ 5.93 µM) |  | 1 µg/mL (≈ 2.96 µM) | 64 µg/mL (≈ 190 µM) | 8 µg/mL (≈ 23.7 µM) | 8 µg/mL (≈ 23.7 µM) |  | 4.1 µM |  |  |
